The source of these data is patent publication US20260068882A1, “ARTHROPOD CONTROLLING COMPOSITION” (Firmenich SA, priority 2019, published 2026).

One assay has as its system Aedes aegypti. The assay can be described thus: In vitro Warm Body assay, mosquitoes landing on treated warm body. In kind it is in vivo. To be noted: for repellent effect with increasing amount of stimuli (in words): 0.0016%, 0.04% and 1% in ethanol (FIG. 10). How it is done: The arthropod controlling effect according to the present invention is determined on mosquitoes using an adapted Warm Body assay as defined in Kröber T, Kessler S, Frei J, Bourquin M, Guerin P M. An in vitro assay for testing mosquito controlling compounds employing a warm body and carbon dioxide as a behavioral activator. J Am Mosq Control Assoc. 2010; 26:381-386.
The controlling effect according to the present invention is determined by testing the Warm Body assay against the yellow fever mosquito, Aedes aegypti Rockefeller strain. […] Observations of controlling efficacy were made on host-seeking females of uniform age, 5 to 10 days old selected as mentioned in the publication mentioned hereinabove. Tested hungry females had access to 10% sugar solution but were not blood-fed.
The published protocol has been adapted in not manually counting the landing mosquitoes but automatically using an automatic counting software, the switch from Anopheles gambiae to A. aegypti led to a decrease of mosquitoes' number placed in the tested cage due to the size difference (i.e. 30 mosquitoes instead of 50) and to an increase of lighting as A. aegypti is a diurnal mosquitoes (i.e. 150 lux instead of 4 lux).
The controlling effect according to the present invention is determined by testing the Warm Body assay against the yellow fever mosquito, A. aegypti Rockefeller strain. […] Observations of controlling efficacy were made on host-seeking females of uniform age, 5 to 10 days old selected as mentioned in the publication mentioned hereinabove. Tested hungry females had access to 10% sugar solution but were not blood-fed.
The controlling effect according to the present invention was assessed using an adapted Warm Body assay as defined in Kröber T, Kessler S, Frei J, Bourquin M, Guerin P M. An in vitro assay for testing mosquito controlling compounds employing a warm body and carbon dioxide as a behavioral activator. J Am Mosq Control Assoc. 2010; 26:381-386.
The published protocol has been adapted in not manually counting the landing mosquitoes but automatically using an automatic counting software, the switch from Anopheles gambiae to Aedes aegypti led to a decrease of mosquitoes' number placed in the tested cage due to the size difference (i.e. 30 mosquitoes instead of 50) and to an increase of lighting as Aedes aegypti is a diurnal mosquitoes (i.e. 150 lux instead of 4 lux).
In this in-vitro assay the number of A. aegypti landing on a warm body treated with the tested stimuli was measured in order to assess the repellency effect. Three replicates were carried on the three different doses: 0.0016%, 0.04% and 1% in ethanol, using 25 A. aegypti 10-12 days old females per cage.
In this in-vitro assay, the number of Aedes aegypti landing on a warm body treated with the tested stimuli was measured in order to assess the repellency effect. Three replicates were carried on the three different doses: 0.0016%, 0.04% and 1% in ethanol.
In this in-vitro assay, the number of Aedes aegypti landing on a warm body treated with the tested stimuli was measured in order to assess the repellency effect. One replicate was carried at different doses ranging from 0.0016% up to 1% in ethanol.

Another assay has as its system Ixodes ricinus. The assay can be described thus: In vitro Warm Plate Assay for ticks. The assay is classed as in vivo. As to conditions: for pest or weed control at 0.00032 % / pest or weed control at 0.0016 % / pest or weed control at 0.008 % / pest or weed control at 0.04 % / pest or weed control at 0.2 % / pest or weed control at 1 %: Ixodes ricinus, read-out: percentage of ticks affected on the Warm Plate; for pest or weed control at 0.00032 %: 0.00032% (Table 10); for pest or weed control at 0.008 %: 0.008% (Table 10); for pest or weed control at 0.2 %: 0.2% (Table 10). How it is done:
Repellent efficacy of the different compounds was assessed against the sheep tick, Ixodes ricinus. I. ricinus is one of the recommended model organisms mentioned by the Guidance on the European Biological Products Regulation [Vol II, Efficacy-Assessment & Evaluation (Parts B+C), v. 3.0, April 2018]. Observations of repellent efficacy were made on last stage nymphs.
The repellent efficacy was assessed using the protocol of the in-vitro Warm Plate Assay as defined in Kröber T, Bourquin M, Guerin P M. A standardized in vivo and in vitro test method for evaluating tick repellents. Pesticide Biochemistry and Physiology. 2013; 107 (2): 160-168.].
The mean±SD number of ticks Ixodes ricinus walking down (affected), falling (affected) or walking-up (non affected) from the warm plate treated with ethanol, N,N-diethyl-3-methylbenzamide, (2,5-dimethyl-2,3-dihydro-1H-inden-2yl)methanol (Ingredient 2) or (2,4,6-trimethyl-2,3-dihydro-1H-inden-2-yl)methanol (Ingredient 1) diluted in ethanol at 0.4 mg/ml and 10 mg/mL was assessed on n groups of 12 ticks (n=2-5).
In this in-vitro assay, the percentage of ticks Ixodes ricinus affected by the stimulus loaded on the warm plate was measured in order to assess the repellency effect. Twelve ticks were assessed per concentrations that goes from 0.0016% up to 1% in ethanol.
Using the same in-vitro setup, the effect on ticks behavior (n≥12) of different stimuli diluted in ethanol at 20% (w/w) was assessed overtime.

Like-named read-outs stand apart in the source and are kept apart here.

“(2RS,4aRS,9bSR)-2-methyl-4,4a,5,9b-tetrahydroindeno[1,2-d][1,3]dioxin + (2RS,4aSR,9bRS)-2-methyl-4,4a,5,9b-tetrahydroindeno[1,2-d][1,3]dioxin”: the “number of mosquitoes landed on the Warm Body” value (“number of mosquitoes landed” below) with Aedes aegypti (0.0016% in ethanol (Table 6)) stood at 28; in the assay on Aedes aegypti (0.04% in ethanol (Table 6)), 2; in the assay with Aedes aegypti (1% in ethanol (Table 6)) it was 2.
Turning to “(1RS,2RS)-2-((2-methoxypropan-2-yloxy)methyl)-2,6-dimethyl-2,3-dihydro-1H-inden-1-ol+(1RS,2SR)-2-((2-methoxypropan-2-yloxy)methyl)-2,6-dimethyl-2,3-dihydro-1H-inden-1-ol”, in the assay with Aedes aegypti, the “repellent effect with increasing amount of stimuli (in words)” value (“repellent effect with increasing amount” for short) is given as “significant lower repellent effect than DEET or IR3535”.
As for `Cc1ccc2c(c1)[C@H]1OCOC[C@@]1(C)C2` (racemic) [(4aRS,9bRS)-4a,8-dimethyl-4,4a,5,9b-tetrahydroindeno[1,2-d][1,3]dioxin], the “number of mosquitoes landed” value in the assay on Aedes aegypti (0.0016% in ethanol (Table 6)) amounted to 34; with Aedes aegypti (0.04% in ethanol (Table 6)), 20; in the assay with Aedes aegypti (1% in ethanol (Table 6)) it was 5.
As to “(1RS,2RS)-2-(hydroxymethyl)-2,6-dimethyl-2,3-dihydro-1H-inden-1-ol+(1RS,2SR)-2-(hydroxymethyl)-2,6-dimethyl-2,3-dihydro-1H-inden-1-ol”, the “repellent effect with increasing amount” value in the assay on Aedes aegypti is “significant lower repellent effect than DEET or IR3535”.
Regarding `CC1OC(C)C2Cc3ccccc3C2O1` (stereo not shown) [ingredient #5, 2,4-dimethyl-4,4a,5,9b-tetrahydroindeno[1,2-d][1,3]dioxine], the “percentage of ticks being affected” value is 0% in the assay on Ixodes ricinus (0.00032% (Table 9)); 0% in the assay with Ixodes ricinus (0.00071% (Table 9)); 17% in the assay on Ixodes ricinus (0.0016% (Table 9)); 0% in the assay on Ixodes ricinus (0.00357% (Table 9)); 0% with Ixodes ricinus (0.0053% (Table 9)); 0% in the assay on Ixodes ricinus (0.008% (Table 9)). Moreover, the “percentage of ticks being affected” value in the assay with Ixodes ricinus (0.0119% (Table 9)) came out at 0%; in the assay with Ixodes ricinus (0.0178% (Table 9)), 8%; in the assay with Ixodes ricinus (0.0267% (Table 9)), 0%; in the assay on Ixodes ricinus (0.04% (Table 9)) it was 15%; with Ixodes ricinus (0.0598% (Table 9)) it was 0%; in the assay on Ixodes ricinus (0.089% (Table 9)), 7%. Also, the figures for the “percentage of ticks being affected” value in the assay on Ixodes ricinus (0.2% (Table 9)), with Ixodes ricinus (0.447% (Table 9)) and with Ixodes ricinus (1% (Table 9)) were 38%, 71% and 62%, respectively.
Take `C[C@@H]1O[C@H](C)[C@@H]2Cc3ccccc3[C@@H]2O1` (racemic) [(2RS,4RS,4ASR,9BRS)-2,4-dimethyl-4,4a,5,9b-tetrahydroindeno[1,2-d][1,3]dioxine]: the results for the “number of mosquitoes landed” value in the assay with Aedes aegypti (0.0016% in ethanol (Table 6)), with Aedes aegypti (0.04% in ethanol (Table 6)) and with Aedes aegypti (1% in ethanol (Table 6)) were 11, 6 and 2, respectively.
In the case of `CC1(C)OC[C@@]2(C)Cc3ccccc3[C@H]2O1` (racemic) [(4aRS,9bRS)-2,2,4a-trimethyl-4,4a,5,9b-tetrahydroindeno[1,2-d][1,3]dioxine], the “number of mosquitoes landed” value is given as 42 in the assay with Aedes aegypti (0.0016% in ethanol (Table 6)), 47 with Aedes aegypti (0.04% in ethanol (Table 6)) and 2 with Aedes aegypti (1% in ethanol (Table 6)).
In the case of `Cc1ccc2c(c1)C(O)C(C)(CO)C2` (racemic) [2-(hydroxymethyl)-2,6-dimethyl-2,3-dihydro-1H-inden-1-ol], in the assay on Aedes aegypti, the “repellent effect with increasing amount” value is “low decrease of landing”.
In the case of `Cc1ccc2c(c1)[C@@H]1O[C@H](C)OC[C@]1(C)C2` [(2R,4aS,9bS)-2,4a,8-trimethyl-4,4a,5,9b-tetrahydroindeno[1,2-d][1,3]dioxin], the “number of mosquitoes landed” value with Aedes aegypti (0.0016% in ethanol (Table 6)) worked out at 40; in the assay on Aedes aegypti (0.04% in ethanol (Table 6)), 8; in the assay with Aedes aegypti (1% in ethanol (Table 6)), 10.
For `C[C@@H]1OC[C@]2(C)Cc3ccccc3[C@@H]2O1` (racemic) [(2RS,4aSR,9bSR)-2,4a-dimethyl-4,4a,5,9b-tetrahydroindeno[1,2-d][1,3]dioxin] the same measures were 34, 18 and 6.
On to `Cc1ccc2c(c1)CC(C)(C(=O)O)C2` (stereo not shown) [2,5-dimethyl-2,3-dihydro-1H-indene-2-carboxylic acid], for which the pest or weed control at 0.0016 % in the assay with Aedes aegypti (Aedes aegypti, read-out: decrease of landings) was in the range of 4 to 29%.
Turning to `COC(C)OCC1(C)Cc2ccc(C)cc2C1` (stereo not shown) [2-[(1-methoxyethoxy)methyl]-2,5-dimethylindane], in the assay on Ixodes ricinus, the pest or weed control at 0.00032 % came to 8%, the pest or weed control at 0.008 % was found to be 21% and the pest or weed control at 0.2 % is 64%. The pest or weed control at 0.0016 % in the assay with Ixodes ricinus (0.0016% (Table 10)) came out at 0%. Besides, the pest or weed control at 0.04 % with Ixodes ricinus (0.04% (Table 10)) came to 33%. The pest or weed control at 1 % in the assay on Ixodes ricinus (1% (Table 10)) was determined as 100%.
For `COC(=O)C1(C)Cc2ccc(C)cc2C1` (racemic) [(+−)-methyl 2,5-dimethyl-2,3-dihydro-1H-indene-2-carboxylate], the pest or weed control at 0.0016 % with Ixodes ricinus (0.0016% (Table 11)) was 7%. Further, the pest or weed control at 0.04 % with Ixodes ricinus (0.04% (Table 11)) was 18%. Moreover, the pest or weed control at 1 % in the assay with Ixodes ricinus (1% (Table 11)) was found to be 100%.
The like results for `CC(C)(C)c1ccc2c(c1)CC1(COC1)C2` [5-(tert-butyl)-1,3-dihydrospiro[indene-2,3′-oxetane]] were, in that order, 0%, 17% and 86%.
In the case of `Cc1cc2c(cc1C)CC(C)(CO)C2` [(2,5,6-trimethyl-2,3-dihydro-1H-inden-2-yl)methanol], the pest or weed control at 0.0016 % in the assay with Ixodes ricinus (0.0016% (Table 11)) was 17%. Further, the pest or weed control at 0.04 % in the assay with Ixodes ricinus (0.04% (Table 11)) came out at 38%. For the same compound, in the assay on Ixodes ricinus (1% (Table 11)), the pest or weed control at 1 % came to 77%.
For the compound `CC(=O)OCC1(C)Cc2ccccc2C1` [(2-methyl-2,3-dihydro-1H-inden-2-yl)methyl acetate], the pest or weed control at 0.04 % with Ixodes ricinus (0.04% (Table 10)) was 25%. The pest or weed control at 0.2 % in the assay on Ixodes ricinus turned out to be 58%. For the same compound, the pest or weed control at 1 % in the assay on Ixodes ricinus (1% (Table 10)) was 100%.
Regarding `COCOCC1(C)Cc2ccc(C)cc2C1` (stereo not shown) [2-((methoxymethoxy)methyl)-2,5-dimethyl-2,3-dihydro-1H-indene], in the assay with Ixodes ricinus, the pest or weed control at 0.00032 % is 0%, the pest or weed control at 0.008 % was 0% and the pest or weed control at 0.2 % amounted to 54%. Besides, the pest or weed control at 0.0016 % in the assay on Ixodes ricinus (0.0016% (Table 10)) came out at 17%. Further, the pest or weed control at 0.04 % in the assay on Ixodes ricinus (0.04% (Table 10)) is 33%. Moreover, the pest or weed control at 1 % in the assay with Ixodes ricinus (1% (Table 10)) was found to be 100%.
In the case of “(2,5-dimethyl-2-indanyl)methyl formate)methanol”, the “percentage of ticks affected on the Warm Plate” value with Ixodes ricinus (0.0016% (Table 11)) was determined as 0%; in the assay with Ixodes ricinus (0.04% (Table 11)), 15%; with Ixodes ricinus (1% (Table 11)), 100%.
